US5972933A, “Method of treating microbial infections” (Ed. Geistlich Sohne AG Fur Chemische Industrie, priority 1998, dated 1999)
≈ marks a conversion by molar mass, not a printed value. Read-outs that look alike come from different tables or passages of the source.

How the values were obtained:
Enterococcus faecalis = assay: Taurolidine in vitro susceptibility, E. faecalis (Example 4); assay type: cell-based; details: E. faecalis
Source text: (§1) The in vitro susceptibility to taurolidine of a panel of clinical isolates and reference strains of Enterococcus faecium (n=20,7 strains vancomycin resistant) and Enterococcus faecalis (n-53,5 strains vancomycin resistant) has been examined. […] In all cases, the Minimum Bacteriocidal Concentration (MBC) of taurolidine was within 2 dilutions of the corresponding value for MIC confirming a bactericidal mode of action. In vitro resistance to taurolidine was not observed.

Staph. app. = assay: Two percent taurolidine solution tested against bacteria, Staph. app. (Example 5); assay type: cell-based; details: 5×10^4 CFU/well
Description: Two percent taurolidine solution was tested against various bacteria at 5×10^4 CFU/well, according to Manual of Clinical Microbiology, 6th edition, P. R. Murray et al., pp. 1334-1335.

Enterococci = assay: Taurolidine in vitro susceptibility, Enterococci overall (Example 4); assay type: cell-based, Enterococcus faecium and Enterococcus faecalis
Source text: as §1

[1] = cited from earlier work

Q: With `O=S1(=O)CCN(CN2CCS(=O)(=O)NC2)CN1` [Taurolidine] as the compound, how does the MBC (Enterococcus faecalis; VAN R strains, read-out: MBC, Avg.) read?
A: 500 µg/mL (≈ 1760 µM)

Q: And the MBC (Enterococcus faecalis; VAN R strains, read-out: MBC, Max.)?
A: 750 µg/mL (≈ 2640 µM)

Q: What about the MBC (Enterococcus faecalis; VAN R strains, read-out: MBC, Mean) of the same compound?
A: 500 µg/mL (≈ 1760 µM)

Q: What about the MBC (Enterococcus faecalis; VAN R strains, read-out: MBC, Median) of the same compound?
A: 500 µg/mL (≈ 1760 µM)

Q: And the MBC (Enterococcus faecalis; VAN R strains, read-out: MBC, Min.)?
A: 500 µg/mL (≈ 1760 µM)

Q: And the MBC (Enterococcus faecalis; VAN R strains, read-out: MBC, Mode)?
A: 500 µg/mL (≈ 1760 µM)

Q: And the MIC (Enterococcus faecalis; VAN R strains, read-out: MIC, Avg.)?
A: 213 µg/mL (≈ 749 µM)

Q: What about the MIC (Enterococcus faecalis; VAN R strains, read-out: MIC, Max.) of the same compound?
A: 375 µg/mL (≈ 1320 µM)

Q: What about the MIC (Enterococcus faecalis; VAN R strains, read-out: MIC, Mean) of the same compound?
A: 213 µg/mL (≈ 749 µM)

Q: And the MIC (Enterococcus faecalis; VAN R strains, read-out: MIC, Median)?
A: 250 µg/mL (≈ 879 µM)

Q: What about the MIC (Enterococcus faecalis; VAN R strains, read-out: MIC, Min.) of the same compound?
A: 125 µg/mL (≈ 440 µM)

Q: What about the MIC (Enterococcus faecalis; VAN R strains, read-out: MIC, Mode) of the same compound?
A: 250 µg/mL (≈ 879 µM)

Q: And the MBC (Enterococcus faecalis; VAN S strains, read-out: MBC, Avg.)?
A: 566 µg/mL (≈ 1990 µM)

Q: And the MBC (Enterococcus faecalis; VAN S strains, read-out: MBC, Max.)?
A: 750 µg/mL (≈ 2640 µM)

Q: What about the MBC (Enterococcus faecalis; VAN S strains, read-out: MBC, Mean) of the same compound?
A: 566 µg/mL (≈ 1990 µM)

Q: And the MBC (Enterococcus faecalis; VAN S strains, read-out: MBC, Median)?
A: 500 µg/mL (≈ 1760 µM)

Q: And the MBC (Enterococcus faecalis; VAN S strains, read-out: MBC, Min.)?
A: 375 µg/mL (≈ 1320 µM)

Q: What about the MBC (Enterococcus faecalis; VAN S strains, read-out: MBC, Mode) of the same compound?
A: 500 µg/mL (≈ 1760 µM)

Q: And the MIC (Enterococcus faecalis; VAN S strains, read-out: MIC, Avg.)?
A: 289 µg/mL (≈ 1020 µM)

Q: What about the MIC (Enterococcus faecalis; VAN S strains, read-out: MIC, Max.) of the same compound?
A: 500 µg/mL (≈ 1760 µM)

Q: And the MIC (Enterococcus faecalis; VAN S strains, read-out: MIC, Mean)?
A: 289 µg/mL (≈ 1020 µM)

Q: And the MIC (Enterococcus faecalis; VAN S strains, read-out: MIC, Median)?
A: 250 µg/mL (≈ 879 µM)

Q: What about the MIC (Enterococcus faecalis; VAN S strains, read-out: MIC, Min.) of the same compound?
A: 190 µg/mL (≈ 668 µM)

Q: What about the MIC (Enterococcus faecalis; VAN S strains, read-out: MIC, Mode) of the same compound?
A: 250 µg/mL (≈ 879 µM)

Q: And the MBC (Enterococcus faecalis; VAN S, Germany, read-out: MBC, (VAN S) model)?
A: 750 µg/mL (≈ 2640 µM)

Q: And the MIC (Enterococcus faecalis; VAN S, Germany, read-out: MIC, (VAN S) model)?
A: 375 µg/mL (≈ 1320 µM)

Q: And the MBC (Enterococcus faecalis; VAN S, Switzerland, read-out: MBC, (VAN S) model)?
A: 500 µg/mL (≈ 1760 µM)

Q: And the MIC (Enterococcus faecalis; VAN S, Switzerland, read-out: MIC, (VAN S) model)?
A: 375 µg/mL (≈ 1320 µM)

Q: What about the MBC (Enterococcus faecalis; VAN S, UK, read-out: MBC, (VAN S) model) of the same compound?
A: 500 µg/mL (≈ 1760 µM)

Q: What about the MIC (Enterococcus faecalis; VAN S, UK, read-out: MIC, (VAN S) model) of the same compound?
A: 250 µg/mL (≈ 879 µM)

Q: What about the MBC (Enterococcus faecalis; all strains, read-out: MBC, Avg.) of the same compound?
A: 606 µg/mL (≈ 2130 µM)

Q: What about the MBC (Enterococcus faecalis; all strains, read-out: MBC, Max.) of the same compound?
A: 750 µg/mL (≈ 2640 µM)

Q: And the MBC (Enterococcus faecalis; all strains, read-out: MBC, Mean)?
A: 606 µg/mL (≈ 2130 µM)

Q: What about the MBC (Enterococcus faecalis; all strains, read-out: MBC, Median) of the same compound?
A: 500 µg/mL (≈ 1760 µM)

Q: What about the MBC (Enterococcus faecalis; all strains, read-out: MBC, Min.) of the same compound?
A: 375 µg/mL (≈ 1320 µM)

Q: What about the MBC (Enterococcus faecalis; all strains, read-out: MBC, Mode) of the same compound?
A: 500 µg/mL (≈ 1760 µM)

Q: And the MIC (Enterococcus faecalis; all strains, read-out: MIC, Avg.)?
A: 310 µg/mL (≈ 1090 µM)

Q: What about the MIC (Enterococcus faecalis; all strains, read-out: MIC, Max.) of the same compound?
A: 500 µg/mL (≈ 1760 µM)

Q: What about the MIC (Enterococcus faecalis; all strains, read-out: MIC, Mean) of the same compound?
A: 310 µg/mL (≈ 1090 µM)

Q: And the MIC (Enterococcus faecalis; all strains, read-out: MIC, Median)?
A: 375 µg/mL (≈ 1320 µM)

Q: And the MIC (Enterococcus faecalis; all strains, read-out: MIC, Min.)?
A: 125 µg/mL (≈ 440 µM)

Q: And the MIC (Enterococcus faecalis; all strains, read-out: MIC, Mode)?
A: 375 µg/mL (≈ 1320 µM)

Q: What about the MBC (Staph. app.; 24 h) of the same compound?
A: 375 µg/mL (≈ 1320 µM)

Q: And the MIC (Staph. app.; 24 h, read-out: MIC 24 h)?
A: 190 µg/mL (≈ 668 µM)

Q: And the MIC (Staph. app.; 48 h, read-out: MIC 48 h)?
A: 250 µg/mL (≈ 879 µM)

Q: What about the “difference in degree of susceptibility between E. faecalis and E. faecium” value (Enterococci) of the same compound?
A: no difference in degree of susceptibility

Q: And the “In vitro resistance to taurolidine” value (Enterococci; E. faecium and E. faecalis)?
A: not observed

Q: What about the “MBC relative to corresponding MIC” value (Enterococci; all cases, bactericidal mode of action) of the same compound?
A: ≤ 2 dilutions

Q: And the “difference in MICs or MBCs between strains” value (Enterococci; vancomycin-sensitive or vancomycin-resistant, various locations across Europe)?
A: No differences were noted

Q: And the half-life in vivo [1]?
A: short half-life in vivo
